What was measured:
Settings in all cases: 48 h
SEM cells [1] = test: cell viability relative to DMSO control; higher = less cytotoxic
Summary of the method: (§1)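 In 1536-well plates, 5 μl of leukemia cells were seeded per well: 500 cells/well for NOMO1 or SEM and 1000 cells/well for P12-Ichikawa. Each line had first been adapted for at least four passages in each medium. Library compounds in DMSO were pin-dosed at 11 threefold concentrations between 47 μM and 0.79 nM, and CellTiter-Glo One luminescence was read after 48 h at 37°C. Viability is a per-plate percentage relative to DMSO wells, with cell-free wells as background.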

NOMO1 [2] = test: as above
Summary of the method: as §1

P12-Ichikawa [3] = test: as above
Summary of the method: as §1

SEM cells [4] = test: AUC of viability dose-response curve (% viability x log10 dose units); higher = less sensitive
Summary of the method: (§2)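 Library compounds in DMSO were applied for 48 h at 37°C at 11 threefold doses (47 μM to 0.79 nM) to medium-adapted leukemia cells in 1536-well plates holding 500 or 1000 cells/well. Luminescence from CellTiter-Glo One was normalised plate by plate against DMSO and cell-free wells. Area under the curve came from trapezoidal integration of a log-logistic fit, after scaling curves that rose above full viability and discarding those that failed quality control. The fit had four parameters and used log10 doses.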

NOMO1 [5] = test: as above
Summary of the method: as §2

P12-Ichikawa [6] = test: as above
Summary of the method: as §2

NC(=O)C1CCCc2c1[nH]c1ccc(Cl)cc21 (stereo unspecified)
cell viability [%]
Settings	NOMO1 [2]	P12-Ichikawa [3]	SEM cells [1]
HPLM + 10% dialyzed FBS, 0.000781 µM	111	112	115
HPLM + 10% dialyzed FBS, 0.00234 µM	129	112	120
HPLM + 10% dialyzed FBS, 0.00702 µM	121	113	129
HPLM + 10% dialyzed FBS, 0.0211 µM	117	114	125
HPLM + 10% dialyzed FBS, 0.0632 µM	123	115	119
HPLM + 10% dialyzed FBS, 0.19 µM	117	110	141
HPLM + 10% dialyzed FBS, 0.569 µM	105	105	126
HPLM + 10% dialyzed FBS, 1.71 µM	87.6	102	64.8
HPLM + 10% dialyzed FBS, 5.12 µM	57.4	83.4	27.4
HPLM + 10% dialyzed FBS, 15.4 µM	24.2	46.2	3.88
HPLM + 10% dialyzed FBS, 46.1 µM	7.26	38.2	1.72
RPMI 5 mM glucose + 10% FBS, 0.000781 µM	117	107	119
RPMI 5 mM glucose + 10% FBS, 0.00234 µM	121	111	122
RPMI 5 mM glucose + 10% FBS, 0.00702 µM	123	111	134
RPMI 5 mM glucose + 10% FBS, 0.0211 µM	105	104	133
RPMI 5 mM glucose + 10% FBS, 0.0632 µM	105	108	126
RPMI 5 mM glucose + 10% FBS, 0.19 µM	123	112	118
RPMI 5 mM glucose + 10% FBS, 0.569 µM	115	109	140
RPMI 5 mM glucose + 10% FBS, 1.71 µM	109	109	115
RPMI 5 mM glucose + 10% FBS, 5.12 µM	81.4	103	63.3
RPMI 5 mM glucose + 10% FBS, 15.4 µM	21.4	59.8	5.97
RPMI 5 mM glucose + 10% FBS, 46.1 µM	9.96	32.3	1.78
RPMI 5 mM glucose + 10% dialyzed FBS, 0.000781 µM	107	114	109
RPMI 5 mM glucose + 10% dialyzed FBS, 0.00234 µM	121	101	107
RPMI 5 mM glucose + 10% dialyzed FBS, 0.00702 µM	111	112	109
RPMI 5 mM glucose + 10% dialyzed FBS, 0.0211 µM	129	107	108
RPMI 5 mM glucose + 10% dialyzed FBS, 0.0632 µM	119	112	111
RPMI 5 mM glucose + 10% dialyzed FBS, 0.19 µM	116	106	126
RPMI 5 mM glucose + 10% dialyzed FBS, 0.569 µM	110	111	108
RPMI 5 mM glucose + 10% dialyzed FBS, 1.71 µM	116	94.4	76.8
RPMI 5 mM glucose + 10% dialyzed FBS, 5.12 µM	85.5	93.8	47.4
RPMI 5 mM glucose + 10% dialyzed FBS, 15.4 µM	24.3	48.2	6.13
RPMI 5 mM glucose + 10% dialyzed FBS, 46.1 µM	12	18.3	2.95

AUC of viability dose-response curve
Settings	NOMO1 [5]	P12-Ichikawa [6]	SEM cells [4]
HPLM + 10% dialyzed FBS	370	417	343
RPMI 5 mM glucose + 10% FBS	401	436	381
RPMI 5 mM glucose + 10% dialyzed FBS	404	421	365

Cc1cc(Nc2cc(CN3CCOCC3)c3nc(C)c(Cc4ccc(Cl)cc4F)n3n2)[nH]n1
cell viability [%]
Settings	NOMO1 [2]	P12-Ichikawa [3]	SEM cells [1]
HPLM + 10% dialyzed FBS, 0.000781 µM	114	112	119
HPLM + 10% dialyzed FBS, 0.00234 µM	121	105	116
HPLM + 10% dialyzed FBS, 0.00702 µM	130	119	113
HPLM + 10% dialyzed FBS, 0.0211 µM	114	116	108
HPLM + 10% dialyzed FBS, 0.0632 µM	137	109	116
HPLM + 10% dialyzed FBS, 0.19 µM	115	111	105
HPLM + 10% dialyzed FBS, 0.569 µM	101	114	74.6
HPLM + 10% dialyzed FBS, 1.71 µM	110	104	60.5
HPLM + 10% dialyzed FBS, 5.12 µM	99.7	96.5	51.4
HPLM + 10% dialyzed FBS, 15.4 µM	53.5	34.8	22.9
HPLM + 10% dialyzed FBS, 46.1 µM	48.3	78.4	21.4
RPMI 5 mM glucose + 10% FBS, 0.000781 µM	103	120	113
RPMI 5 mM glucose + 10% FBS, 0.00234 µM	98.2	114	107
RPMI 5 mM glucose + 10% FBS, 0.00702 µM	103	117	114
RPMI 5 mM glucose + 10% FBS, 0.0211 µM	111	117	109
RPMI 5 mM glucose + 10% FBS, 0.0632 µM	95.4	110	108
RPMI 5 mM glucose + 10% FBS, 0.19 µM	114	116	83.2
RPMI 5 mM glucose + 10% FBS, 0.569 µM	94	96.2	61.6
RPMI 5 mM glucose + 10% FBS, 1.71 µM	94.7	109	58.8
RPMI 5 mM glucose + 10% FBS, 5.12 µM	91.7	86.6	49.4
RPMI 5 mM glucose + 10% FBS, 15.4 µM	36.7	48.1	14.8
RPMI 5 mM glucose + 10% FBS, 46.1 µM	28.2	56.5	6.83
RPMI 5 mM glucose + 10% dialyzed FBS, 0.000781 µM	102	106	109
RPMI 5 mM glucose + 10% dialyzed FBS, 0.00234 µM	111	101	129
RPMI 5 mM glucose + 10% dialyzed FBS, 0.00702 µM	119	115	122
RPMI 5 mM glucose + 10% dialyzed FBS, 0.0211 µM	115	114	92.4
RPMI 5 mM glucose + 10% dialyzed FBS, 0.0632 µM	115	104	106
RPMI 5 mM glucose + 10% dialyzed FBS, 0.19 µM	106	111	95.2
RPMI 5 mM glucose + 10% dialyzed FBS, 0.569 µM	109	99.7	66.1
RPMI 5 mM glucose + 10% dialyzed FBS, 1.71 µM	97.3	104	52.7
RPMI 5 mM glucose + 10% dialyzed FBS, 5.12 µM	92	95.8	40.9
RPMI 5 mM glucose + 10% dialyzed FBS, 15.4 µM	45	51.5	11.6
RPMI 5 mM glucose + 10% dialyzed FBS, 46.1 µM	34.3	62.7	9.11

AUC of viability dose-response curve
Settings	NOMO1 [5]	P12-Ichikawa [6]	SEM cells [4]
HPLM + 10% dialyzed FBS	429	436	342
RPMI 5 mM glucose + 10% FBS	424	428	317
RPMI 5 mM glucose + 10% dialyzed FBS	422	439	310

— the supplement of paper PMC11451515
